According to the NIST ThermoML archive (doi:10.1021/je200350a):

Assay: xn = mol fraction of the nth substance listed
Conditions: 101 kPa, Liquid; for viscosity: Capillary tube (Ostwald / Ubbelohde) method

O=[N+]([O-])c1ccccc1 [nitrobenzene] + CC1CCCCC1
Conditions | mass density, 293.15 K [kg/m3] | mass density, 298.15 K [kg/m3] | mass density, 303.15 K [kg/m3] | mass density, 308.15 K [kg/m3] | viscosity, 293.15 K [mPa·s] | viscosity, 298.15 K [mPa·s] | viscosity, 303.15 K [mPa·s] | viscosity, 308.15 K [mPa·s]
x1 = 0.1422 | 820.2 | 816.2 | 812.4 | 808.2 | 0.785 | 0.735 | 0.6901 | 0.649
x1 = 0.2103 | 845.2 | 840.8 | 837.4 | 832.3 | 0.8282 | 0.7723 | 0.7233 | 0.6777
x1 = 0.3412 | 900.9 | 897.5 | 894.2 | 891 | 0.9436 | 0.8765 | 0.8177 | 0.7653
x1 = 0.404 | 919.6 | 915.6 | 912.8 | 909 | 0.9971 | 0.9244 | 0.8618 | 0.8054
x1 = 0.5249 | 973.2 | 970.2 | 965 | 962.6 | 1.125 | 1.042 | 0.9677 | 0.9044
x1 = 0.6397 | 1027 | 1022.7 | 1019.6 | 1016 | 1.266 | 1.172 | 1.089 | 1.015
x1 = 0.7489 | 1075.7 | 1071.6 | 1067.8 | 1062.9 | 1.416 | 1.312 | 1.218 | 1.136
x1 = 0.853 | 1123.6 | 1119.2 | 1114.5 | 1111.5 | 1.613 | 1.484 | 1.371 | 1.272
x1 = 0.9031 | 1150.8 | 1146.3 | 1142 | 1137.5 | 1.718 | 1.58 | 1.46 | 1.354
